Experimental data reported in patent publication EP0596057B1, “QUINUCLIDINE DERIVATIVES AS SQUALENE SYNTHASE INHIBITORS” (priority 1992, dated 1993).
pIC50: −log10 of the molar value.

Assays:
Squalene synthase = target: T1, Squalene synthase (Rattus norvegicus, UniProt Q02769); test: Inhibition of Squalene synthase (formation of squalene from tritiated farnesyl pyrophosphate, rat liver microsomal protein); type: biochemical; conditions: substrate 1-[3H]-farnesyl pyrophosphate 20µM, 37°C, 15 minutes, read-out: IC50 (concentration which results in a 50% inhibition of squalene production)
T1 construct: from tissue; host or cells: rat liver microsomes
T1 sequence (Q02769 1-416): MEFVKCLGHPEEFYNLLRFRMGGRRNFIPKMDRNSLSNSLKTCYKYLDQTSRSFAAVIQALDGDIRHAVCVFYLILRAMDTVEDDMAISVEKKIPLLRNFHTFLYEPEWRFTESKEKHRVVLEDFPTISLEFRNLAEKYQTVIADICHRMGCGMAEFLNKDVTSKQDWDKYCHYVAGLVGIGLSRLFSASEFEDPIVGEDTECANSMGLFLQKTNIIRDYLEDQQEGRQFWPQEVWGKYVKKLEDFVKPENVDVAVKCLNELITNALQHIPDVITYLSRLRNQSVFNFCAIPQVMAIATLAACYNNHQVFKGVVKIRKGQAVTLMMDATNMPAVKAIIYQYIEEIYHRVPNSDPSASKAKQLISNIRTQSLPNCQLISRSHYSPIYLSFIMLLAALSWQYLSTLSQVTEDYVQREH
Method: In this test, the ability of a compound to prevent the formation of squalene from a radioactive substrate (tritiated farnesyl pyrophosphate) is assessed.
The test compound is incubated at a concentration of 25 micromolar in 200µl of a buffered solution containing potassium phosphate (50mM), MgCl2 (4.95mM), KF (9.9mM), NADPH (0.9mM) and rat liver microsomal protein (20µg). Rat liver microsomes are prepared by the method described in published European Patent Application No. 324,421 and stored in liquid nitrogen prior to assay. Assay vials are kept at 37°C throughout the incubation.
The reaction is started with the addition of the substrate (1-[^3H]-farnesyl pyrophosphate), final concentration 20µM, and stopped after 15 minutes reaction time with the addition of 50µl of 4% KOH. The reaction products are separated from unreacted substrate after application to a C-18 octadecyl lccBond column (Analytichem Int product No. 617101). An aqueous fraction is eluted with 250µl of 0.1M KOH. Squalene is then eluted with 1.0 ml 10% ethylacetate in hexane and radioactivity determined. The difference in radioactivity in the presence and absence of the test compound is used to determine the level of inhibition. […]

[1] = test system: de novo hepatic cholesterol synthesis; test: Acute rat cholesterol synthesis assay (de novo hepatic cholesterol synthesis from 14C-acetate); type: in vivo; conditions: female rats, [2-14C]-acetate ip 1 hour after compound, plasma sampled after a further hour, route not stated
Method: This is an acute in vivo test in the rat to measure de novo hepatic cholesterol synthesis from exogenously administered ^14C-acetate.
Female rats (35 - 55 g) are housed in reverse lighting conditions (red light from 0200h - 1400h) for a period of about 2 weeks prior to test. Animals are allowed free access to chow and drinking water throughout this period. At test, animals should weigh 125 - 150 g.
Test compounds may be administered by oral gavage, dissolved or suspended in 0.5% polysorbate, or by ip or iv dosing. Control animals receive vehicle alone. After 1 hour the rats are injected ip with 25µCi [2-^14C]-acetate (NEN DUPONT. specific activity, 45-60mCi/mmol NEC-085H, or AMERSHAM specific activity, 50-60mCi/mmol CFA 14) in a volume of 0.25 ml saline (100µCi/ml). After a further hour a blood sample was obtained from the abdominal vena cava under terminal halothane anaesthesia.
1ml of plasma is lyophilised and then saponified in 2ml ethanolic KOH (1 part 33% KOH, 9 parts ethanol) at 75°C for 2 hours. After addition of an equal quantity of water, non-saponifiable lipids are extracted with […] 5ml volumes of hexane. The hexane extracts are evaporated to dryness and the residues dissolved in ethanol to determine cholesterol specific radioactivity. ED50 values can be determined in the standard way.

| Structure (SMILES) | pIC50 (Squalene synthase) | ED50 [1] [mg/kg] |
| --- | --- | --- |
| OC1(c2ccc(COc3ccccc3)cc2)CN2CCC1CC2 (centres unmarked) [Example 2, 3-(4-phenoxymethylphenyl)-quinuclidin-3-ol] | 7.52 | – |
| OC1(c2ccc(C#Cc3ccccc3)cc2)CN2CCC1CC2 (centres unmarked) [Example 4, 3-(4-phenylethyn-2-ylphenyl)quinuclidin-3-ol] | – | 29 |
